Test results: PMC5485171 (Diabetes, Obesity & Metabolism, 2017)

Tested on: patients with type 2 diabetes
Assay: Adverse events
Type: in vivo, human
[1] = 28 weeks, as‐treated, number (%) of patients, n = 181 / 122
[2] = 28 weeks, most common AEs (≥5% of patients)

N[C@@H](CC(=O)N1CCn2c(nnc2C(F)(F)F)C1)Cc1cc(F)c(F)cc1F [Sitagliptin, sitagliptin]
symptoms of hypoglycaemia, number of recipients (28 weeks): 7 recipients | AEs leading to withdrawal [1]: 0 (0.0) n (%) | Cardiovascular events (adjudicated) [1]: 0 (0.0) n (%) | Gastrointestinal AEs [1]: 9 (7.4) n (%) | Gastrointestinal AEs: Diarrhea [1]: 2 (1.6) n (%) | Gastrointestinal AEs: Dyspepsia [1]: 1 (0.8) n (%) | Gastrointestinal AEs: Nausea [1]: 2 (1.6) n (%) | Gastrointestinal AEs: Vomiting [1]: 0 (0.0) n (%) | Hypoglycaemia: Major [1]: 0 (0.0) n (%) | Injection‐site‐related AEs [1]: 0 (0.0) n (%) | Injection‐site‐related AEs: Bruising [1]: 0 (0.0) n (%) | Injection‐site‐related AEs: Induration [1]: 0 (0.0) n (%) | Injection‐site‐related AEs: Nodules [1]: 0 (0.0) n (%) | Injection‐site‐related AEs: Pruritus [1]: 0 (0.0) n (%) | Pancreatic cancer (adjudicated) [1]: 0 (0.0) n (%) | Pancreatitis (adjudicated) [1]: 0 (0.0) n (%) | Renal failure [1]: 0 (0.0) n (%) | Serious AEs [1]: 0 (0.0) n (%) | Symptoms of hypoglycaemia [1]: 7 (5.7) n (%) | Thyroid neoplasms (adjudicated) [1]: 0 (0.0) n (%) | nasopharyngitis, proportion of patients [2]: 0.0% | nausea, proportion of patients [2]: 1.6% | Hypoglycaemia: Minor (28 weeks, symptoms and glucose <54 mg/dL, number (%) of patients, n = 181 / 122): 1 (0.8) n (%) | AEs reported, proportion of recipients (28‐week treatment period): 32.8% | Any AE (28‐week treatment period, as‐treated, exenatide 2.0 mg QW sc (n = 181), sitagliptin 100 mg once daily oral (n = 122), number (%) of patients): 40 (32.8) n (%)
